Series [1] deals with NCl-H460 (human small cell lung carcinoma) xenografts. Put plainly: NCl-H460 xenograft study in nude mice. To be noted: oral, (d×5)2 schedule. As for the experimental part: To perform the NCl-H460 xenograft study, NCl-H460 tumor pieces measuring ~60 mm^3 were implanted in the space of dorsal lateral flanks of female athymic nude mice to initiate tumor growth. When the tumors were grown to ~150-1000 mm^3, animals were randomized into groups of five prior to initiating therapy. […] Each gram of placebo was formulated to contain 895.2 mg hydroxylpropyl beta cyclodextran, 89.52 mg dextrose anhydrous and 14.9 mg sodium carbonate. Each formulation was dissolved in 2 ml sterile water and administered through oral route in a (d×5)2 schedule. Tumor diameters were measured twice a week using a vernier caliper.
Tumor volumes were calculated assuming tumors to be ellipsoid using the formula: V=(D×d^2)/2, where V (mm^3) is tumor volume, D is longest diameter in mm and d is shortest diameter in mm. Change in tumor volumes (Δ) for each treated (T) and control (C) group were calculated by subtracting the mean tumor volume on the first day of treatment (starting day) from the mean tumor volume on the specified observation day. These values were used to calculate a percentage growth (% T/C) using the formulas:
Percentage tumor growth inhibition (% TGI) was then calculated using the formula: % TGI=100−% TC.
All of the mice bearing subcutaneous tumors measuring approximately 150-800 mm^3 were treated with test compound through oral gavage using a (d×5)2 schedule. Tumor diameters were measured twice in a week using vernier calipers and tumor volumes were calculated assuming tumors to be ellipsoid using the formula V=(D×d^2)/2 where V (mm^3) is tumor volume, D is longest diameter in mm., and d is shortest diameter in mm. Changes in tumor Volumes (Δ volumes) for each treated (T) and control (C) group are calculated, by subtracting the mean tumor volume on the first day of treatment (starting day) from the mean tumor volume of on the specified observation day. These values are used to calculate a percentage growth (% T/C) using the formula: […]
Tumor regressions are defined as partial if the tumor volume decreases to 50% or less of the tumor volume at the start of the treatment without dropping below to 63 mm^3. Complete regression is defined if the tumor volume drops to below measurable limits (<63 mm^3).
The percentage body weight change in comparison to starting day body weight of each animal was calculated using the formula: Percentage Body weight change=[(Body weight on specified observation day-Body weight on starting day)/Body weight on starting day]×100.
The other parameter observed was mortality.

The subject of series [2] is Osteosarcoma-32 xenograft. Put plainly: Osteosarcoma tumor regression model. Set-up: key: 6+: Maintained Complete Regression; 5+: Complete Regression; 4+: Partial Regression; 3+: Stable Disease. As to conditions: 28 mg/kg oral gavage, [(d×5)2]3 schedule. Format: in vivo, mice. The protocol: (§1) This test was carried out with the use of the methods described in Cancer, Res., Oct. 15, 64:20:7491-9 (2004), and in Clin. Cancer Res., Nov. 15:9 (15):5442-53 (2003).
(§2) All mice bearing subcutaneous (“Sc”) tumors measuring approximately 0.2-1 cm in diameter were treated with a test compound by oral gavage using [(d×5)2]3 schedule. […] The tumor response to the test compound was defined as follows: For individual tumors, partial regression (“PR”) was defined as a volume regression >50%, but with measurable tumor at all times. Complete regression (“CR”) was defined as disappearance of measurable tumor mass at some point within 12 weeks after initiation of therapy. Maintained CR is defined as no tumor re-growth within a 12-week study time frame. This time point was chosen because all studies lasted at least 12 weeks. Mice that died before the end of the 12-week study time, and prior to achieving a response, were considered as failures for tumor response.

The next series has as its system Osteosarcoma-2 xenograft. Put plainly: Osteosarcoma tumor regression model. Format: in vivo, mice. Set-up: key: 6+: Maintained Complete Regression; 5+: Complete Regression; 4+: Partial Regression; 3+: Stable Disease. To be noted: 28 mg/kg oral gavage, [(d×5)2]3 schedule. As for the experimental part:
as §1, §2

For series [3], the system named is Osteosarcoma-17 xenograft. Put plainly: Osteosarcoma tumor regression model. The class given is in vivo, mice. On the set-up: key: 6+: Maintained Complete Regression; 5+: Complete Regression; 4+: Partial Regression; 3+: Stable Disease. To be noted: 28 mg/kg oral gavage, [(d×5)2]3 schedule. The protocol: as §1, §2
Series [4] has as its system Osteosarcoma-29 xenograft. Nature of the series: Osteosarcoma tumor regression model. Format: in vivo, mice. On the set-up: key: 6+: Maintained Complete Regression; 5+: Complete Regression; 4+: Partial Regression; 3+: Stable Disease. As to conditions: 28 mg/kg oral gavage, [(d×5)2]3 schedule. The protocol: as §1, §2

Regarding `CC[C@@]1(O)C(=O)OCc2c1cc1n(c2=O)C(OCCO)c2cc3ccccc3nc2-1` (mixture of isomers) [5(RS)-(2′-hydroxyethoxy)-20(S)-camptothecin, reference compound], the results for the “% Tumor Growth Inhibition” value in series [1] (Dose 2 mg/kg) and in series [1] (Dose 4 mg/kg) were 60% and 64%, respectively. Moreover, the Mortality in series [1] (Dose 2 mg/kg) and in series [1] (Dose 4 mg/kg) was 0/5 each time. Moreover, the Tumor response is given as 3+ in series [2], 5+ with Osteosarcoma-2 xenograft, 4+ in series [3] and 5+ in series [4].
As to `CC[C@@]1(O)C(=O)OCc2c1cc1n(c2=O)[C@@H](OCCO)c2cc3ccccc3nc2-1` [DRF-(5S,20S)-1042, 5(S)-(2′-hydroxyethoxy)-20(S)-camptothecin], the “% Tumor Growth Inhibition” value in series [1] (Dose 2 mg/kg) stood at 68%; in series [1] (Dose 4 mg/kg), 76%. Besides, the Mortality in series [1] (Dose 2 mg/kg) and in series [1] (Dose 4 mg/kg) was 0/5 in each case. The Tumor response (in series [2]; with Osteosarcoma-2 xenograft; in series [3]; in series [4]) was 6+ throughout.

The values are drawn from patent publication US20110177161A1, “PHARMACEUTICAL COMPOSITIONS OF [5(S)-(2'-HYDROXYETHOXY)-20(S)-CAMPTOTHECIN” (DR. REDDY'S LABORATORIES LIMITED, priority 2007, published 2011).
